Values of other authors, collected in patent publication US12257290B2, “PIC1 inhibition of myeloperoxidase oxidative activity in an animal model” (priority 2018, dated 2025).

Conditions: intranasal administration; animal models; cited from earlier work

In the case of DNase, the “symptoms of TRALI” value is given as “reduced symptoms of TRALI”.
